Laboratory results as given in ChEMBL document CHEMBL5528028, “Discovery of benzopyridone cyanoacetates as new type of potential broad-spectrum antibacterial candidates” (Eur J Med Chem, 2024).
In brackets after ≈: the same amount, converted by molar mass.

Legend:
Format in all cases: functional
Enterococcus faecalis = assay: Antibacterial activity against Enterococcus faecalis assessed growth inhibition by micro broth dilution method
Staphylococcus aureus [1] = assay: Antibacterial activity against Staphylococcus aureus assessed growth inhibition by micro broth dilution method
Pseudomonas aeruginosa [2] = assay: Antibacterial activity against Pseudomonas aeruginosa ATCC 27853 assessed growth inhibition by micro broth dilution method
Klebsiella pneumoniae = assay: Antibacterial activity against Klebsiella pneumonia assessed growth inhibition by micro broth dilution method
Acinetobacter baumannii = assay: Antibacterial activity against Acinetobacter baumannii assessed growth inhibition by micro broth dilution method
Staphylococcus aureus [3] = assay: Antibacterial activity against methicillin-resistant Staphylococcus aureus assessed growth inhibition by micro broth dilution method
Staphylococcus aureus [4] = assay: Antibacterial activity against Staphylococcus aureus ATCC 29213 assessed growth inhibition by micro broth dilution method
Escherichia coli [5] = assay: Antibacterial activity against Escherichia coli ATCC 25922 assessed growth inhibition by micro broth dilution method
Staphylococcus aureus [6] = assay: Antibacterial activity against Staphylococcus aureus ATCC 25923 assessed growth inhibition by micro broth dilution method
Escherichia coli [7] = assay: Antibacterial activity against Escherichia coli assessed growth inhibition by micro broth dilution method
Pseudomonas aeruginosa [8] = assay: Antibacterial activity against Pseudomonas aeruginosa assessed growth inhibition by micro broth dilution method

Row | Compound | MIC (Enterococcus faecalis) [µg/mL] | MIC (Staphylococcus aureus [1]) [µg/mL] | MIC (Pseudomonas aeruginosa [2]) [µg/mL] | MIC (Klebsiella pneumoniae) [µg/mL] | MIC (Acinetobacter baumannii) [µg/mL] | MIC (Staphylococcus aureus [3]) [µg/mL] | MIC (Staphylococcus aureus [4]) [µg/mL] | MIC (Escherichia coli [5]) [µg/mL] | MIC (Staphylococcus aureus [6]) [µg/mL] | MIC (Escherichia coli [7]) [µg/mL] | MIC (Pseudomonas aeruginosa [8]) [µg/mL]
1 | C#CCn1cc(C(=O)OCC)c(=O)c2cc(F)c(F)cc21 | 128 (≈ 439 µM) | 128 (≈ 439 µM) | 256 (≈ 879 µM) | 128 (≈ 439 µM) | 256 (≈ 879 µM) | 128 (≈ 439 µM) | 128 (≈ 439 µM) | 64 (≈ 220 µM) | 256 (≈ 879 µM) | 4 (≈ 13.7 µM) | 16 (≈ 54.9 µM)
2 | CCOC(=O)c1cn(Cc2ccc(Cl)cc2Cl)c2cc(F)c(F)cc2c1=O | 256 (≈ 621 µM) | 128 (≈ 311 µM) | 256 (≈ 621 µM) | 0.5 (≈ 1.21 µM) | 256 (≈ 621 µM) | 256 (≈ 621 µM) | 256 (≈ 621 µM) | 32 (≈ 77.6 µM) | 256 (≈ 621 µM) | 16 (≈ 38.8 µM) | 128 (≈ 311 µM)
3 | CCOC(=O)c1cn(CCN2CCOCC2)c2cc(F)c(F)cc2c1=O | 128 (≈ 349 µM) | 64 (≈ 175 µM) | 128 (≈ 349 µM) | 256 (≈ 699 µM) | 2 (≈ 5.46 µM) | 256 (≈ 699 µM) | 256 (≈ 699 µM) | 128 (≈ 349 µM) | 256 (≈ 699 µM) | 2 (≈ 5.46 µM) | 128 (≈ 349 µM)
4 | C#CCn1cc(C(=O)OCC)c(=O)c2cc(F)c([C-](C#N)C(=O)OCC)cc21.[Na+] (stereo unspecified) | 32 | 64 | 8 | 16 | 16 | 64 | 16 | 8 | 2 | 16 | 32
5 | CCCCn1cc(C(=O)OCC)c(=O)c2cc(F)c(F)cc21 | 64 (≈ 207 µM) | 32 (≈ 103 µM) | 256 (≈ 828 µM) | 64 (≈ 207 µM) | 128 (≈ 414 µM) | 256 (≈ 828 µM) | 128 (≈ 414 µM) | 128 (≈ 414 µM) | 128 (≈ 414 µM) | 16 (≈ 51.7 µM) | 64 (≈ 207 µM)
6 | CCCCCn1cc(C(=O)OCC)c(=O)c2cc(F)c([C-](C#N)C(=O)OCC)cc21.[Na+] (stereo unspecified) | 4 | 32 | 4 | 4 | 4 | 32 | 4 | 1 | 1 | 4 | 4
7 | CCn1cc(C(=O)O)c(=O)c2cc(F)c(N3CCNCC3)cc21 [NORFLOXACIN] | 8 (≈ 25.1 µM) | 8 (≈ 25.1 µM) | 8 (≈ 25.1 µM) | 8 (≈ 25.1 µM) | 2 (≈ 6.26 µM) | 8 (≈ 25.1 µM) | 4 (≈ 12.5 µM) | 4 (≈ 12.5 µM) | 8 (≈ 25.1 µM) | 4 (≈ 12.5 µM) | 8 (≈ 25.1 µM)
8 | CCCCCCCCn1cc(C(=O)O)c(=O)c2cc(F)c(C(C#N)C(=O)OCC)cc21 (stereo unspecified) | 16 (≈ 37.2 µM) | 4 (≈ 9.29 µM) | 1 (≈ 2.32 µM) | 0.25 (≈ 0.581 µM) | 1 (≈ 2.32 µM) | 8 (≈ 18.6 µM) | 4 (≈ 9.29 µM) | 0.5 (≈ 1.16 µM) | 1 (≈ 2.32 µM) | 32 (≈ 74.3 µM) | 4 (≈ 9.29 µM)
9 | CCOC(=O)c1cn(CC=C(C)C)c2cc(F)c(F)cc2c1=O | 128 (≈ 398 µM) | 128 (≈ 398 µM) | 256 (≈ 797 µM) | 32 (≈ 99.6 µM) | 256 (≈ 797 µM) | 256 (≈ 797 µM) | 128 (≈ 398 µM) | 64 (≈ 199 µM) | 64 (≈ 199 µM) | 8 (≈ 24.9 µM) | 64 (≈ 199 µM)
10 | CCOC(=O)c1cn(Cc2ccc(C)cc2)c2cc(F)c(F)cc2c1=O | 64 (≈ 179 µM) | 64 (≈ 179 µM) | 256 (≈ 716 µM) | 128 (≈ 358 µM) | 2 (≈ 5.6 µM) | 256 (≈ 716 µM) | 128 (≈ 358 µM) | 128 (≈ 358 µM) | 64 (≈ 179 µM) | 1 (≈ 2.8 µM) | 128 (≈ 358 µM)
11 | CCOC(=O)c1cn(C)c2cc(F)c(F)cc2c1=O | 128 (≈ 479 µM) | 128 (≈ 479 µM) | 256 (≈ 958 µM) | 64 (≈ 239 µM) | 256 (≈ 958 µM) | 256 (≈ 958 µM) | 128 (≈ 479 µM) | 128 (≈ 479 µM) | 256 (≈ 958 µM) | 16 (≈ 59.9 µM) | 64 (≈ 239 µM)
12 | CCOC(=O)c1cn(CC)c2c(F)c(F)c(F)cc2c1=O | 128 (≈ 428 µM) | 32 (≈ 107 µM) | 256 (≈ 855 µM) | 32 (≈ 107 µM) | 32 (≈ 107 µM) | 128 (≈ 428 µM) | 128 (≈ 428 µM) | 64 (≈ 214 µM) | 64 (≈ 214 µM) | 8 (≈ 26.7 µM) | 32 (≈ 107 µM)
13 | CCCn1cc(C(=O)OCC)c(=O)c2cc(F)c([C-](C#N)C(=O)OCC)cc21.[Na+] (stereo unspecified) | 16 | 128 | 8 | 16 | 16 | 64 | 16 | 4 | 2 | 16 | 8
14 | CCOC(=O)c1cn(Cc2ccccc2)c2cc([C-](C#N)C(=O)OCC)c(F)cc2c1=O.[Na+] (stereo unspecified) | 64 | 64 | 4 | 4 | 8 | 256 | 4 | 2 | 0.5 | 4 | 32
15 | CCOC(=O)c1cn(Cc2ccc(C)cc2)c2cc([C-](C#N)C(=O)OCC)c(F)cc2c1=O.[Na+] (stereo unspecified) | 16 | 32 | 1 | 2 | 2 | 64 | 0.5 | 1 | 0.5 | 1 | 8
16 | CCOC(=O)c1cn(Cc2cnc(Cl)s2)c2cc([C-](C#N)C(=O)OCC)c(F)cc2c1=O.[Na+] (stereo unspecified) | 4 | 32 | 2 | 32 | 16 | 4 | 8 | 8 | 4 | 4 | 64
17 | CCOC(=O)c1cn(CC2CC2)c2cc(F)c(F)cc2c1=O | 128 (≈ 417 µM) | 128 (≈ 417 µM) | 256 (≈ 833 µM) | 128 (≈ 417 µM) | 256 (≈ 833 µM) | 256 (≈ 833 µM) | 128 (≈ 417 µM) | 64 (≈ 208 µM) | 128 (≈ 417 µM) | 16 (≈ 52.1 µM) | 32 (≈ 104 µM)
18 | CCCCCCCCn1cc(C(=O)OCC)c(=O)c2cc(F)c(F)cc21 | 64 (≈ 175 µM) | 4 (≈ 10.9 µM) | 256 (≈ 701 µM) | 64 (≈ 175 µM) | 64 (≈ 175 µM) | 256 (≈ 701 µM) | 16 (≈ 43.8 µM) | 64 (≈ 175 µM) | 128 (≈ 350 µM) | 4 (≈ 10.9 µM) | 64 (≈ 175 µM)
19 | CCCCCCCCCCCCn1cc(C(=O)OCC)c(=O)c2cc(F)c([C-](C#N)C(=O)OCC)cc21.[Na+] (stereo unspecified) | 8 | 32 | 0.25 | 1 | 0.25 | 8 | 1 | 0.5 | 1 | 1 | 4
20 | CCOC(=O)c1cn(CC)c2cc(C(C#N)C(=O)OCC)c(F)cc2c1=O (stereo unspecified) | 32 (≈ 85.5 µM) | 32 (≈ 85.5 µM) | 8 (≈ 21.4 µM) | 8 (≈ 21.4 µM) | 32 (≈ 85.5 µM) | 256 (≈ 684 µM) | 16 (≈ 42.7 µM) | 16 (≈ 42.7 µM) | 8 (≈ 21.4 µM) | 16 (≈ 42.7 µM) | 8 (≈ 21.4 µM)
21 | CCOC(=O)c1cn(Cc2cccc(Cl)c2)c2cc([C-](C#N)C(=O)OCC)c(F)cc2c1=O.[Na+] (stereo unspecified) | 1 | 128 | 2 | 4 | 64 | 64 | 2 | 2 | 1 | 0.5 | 16
